Laboratory results: US7053120B2, “Use of carboxy compounds such as 2(4-acetoxyphenyl)2-chloro-N-methyl-ethylammonium chloride as anti-inflammatory agents” (priority 1999, dated 2006)
Read-outs that look alike come from different tables or passages of the source.

Key:
[1] = test system: AP-1 (p1168(κBmut)IL6P-luc+); format: cell-based, mouse; conditions: 60 nM STS
[2] = test system: IL-6 promoter (p1168hu.IL6P-luc+); format: cell-based, mouse; conditions: added 2 h before 2000 IU/ml TNF, total 8 h
JNK p46 and p54 = assay: MAPK activation assay (phospho-specific Western blot), JNK, L929sA cells; format: cell-based, mouse; conditions: 2000 IU/ml TNF 15 minutes
[3] = test system: NF-κB DNA-binding activity (IL-6 NF-κB response element); conditions: L929sA cells, previously demonstrated; cited from earlier work
[4] = test system: GRE-driven promoter (p(GRE)2-50-luc+); format: cell-based, mouse
[5] = test system: NF-κB (p1168(AP-1mut)IL6P-luc+); format: cell-based, mouse; conditions: 2000 IU/ml TNF
[6] = test system: E-selectin promoter (pE-selectin-Luc); format: cell-based, mouse; conditions: 2000 IU/ml TNF
[7] = test system: Gal4-p65 chimeric protein; assay: Gal4-p65 transactivation of p(Gal)2-50hu.IL6P-luc+ in L929sA cells; format: cell-based, mouse
[8] = test system: NF-κB reporter p(IL6-κB)350hu.IL6P-luc+, GR dependence; format: cell-based, human; conditions: mock DNA versus pSVhGRα, 2000 IU/ml TNF
pNF-κB-Luc = assay: TNF-activated pNF-κB-Luc (E1B TATA) in HEK293T cells; format: cell-based, human; conditions: 2000 IU/ml TNF
[9] = test system: NF-κB (p(IL6κB)350hu.IL6P-luc+); format: cell-based, mouse; conditions: 0.1, 1 or 10 μM CpdA compared with 1 μM DEX, 2000 IU/ml TNF
oestrus cycle = conditions: rats; cited from earlier work
[10] = test system: NF-κB DNA-binding activity (IL-6 NF-κB response element); assay: EMSA of NF-κB DNA-binding activity in L929sA cells; format: cell-based, mouse; conditions: all concentrations indicated, added 2 h before TNF (2000 IU/ml), total 4 h
[11] = kept in solution (especially at pH5 and above); cited from earlier work
[12] = Stability of the compound on storage and in solution; format: physicochemical; conditions: solid, storage
Text: The invention further relates to compositions, preferably pharmaceutical compositions, comprising as an active ingredient at least one of the compounds as defined in formula (I) together with (pharmaceutically) acceptable excipients. […] The preferred compound exerting this activity is 2(4-acetoxyphenyl)-2-chloro-N-methyl-ethylammonium chloride and has a molecular weight of 264.14.

[13] = test system: endogenous murine IL-6 production; assay: Murine IL-6 ELISA on supernatant of TNF-induced L929sA cells; format: cell-based, mouse; conditions: 1 μM and 10 μM, 2000 IU/ml TNF, 8 h

C[C@@H]1C[C@H]2[C@@H]3CCC4=CC(=O)C=C[C@]4(C)[C@@]3(F)[C@@H](O)C[C@]2(C)[C@@]1(O)C(=O)CO [DEX, Dexamethasone, reference compound]
inhibition of STS-induced AP-1-mediated transactivation ([1]; 1 μM): efficiently inhibits the AP-1-mediated transactivation | inhibition of TNF induction of p1168hu.IL6P-luc+ (relative luciferase induction factor) ([2]; 1 μM): efficiently be inhibited | effect on amount of phosphorylated (activated) JNK (JNK p46 and p54; 1 μM for 2 h): able to inhibit the amount of phosphorylated JNK | effect on NF-κB DNA-binding capacities [3]: without affecting the DNA-binding capacities of NF-κB | transactivation of p(GRE)2-50-luc+ (induction factor) ([4]; 1 μM, 8 h): at least 8 fold | inhibition of TNF-induced NF-κB-mediated transactivation of p1168(AP-1mut)IL6P-luc+ ([5]; 1 μM): efficiently inhibit this NF-κB-mediated transactivation | inhibition of TNF-induced pE-selectin-luc+ ([6]; 1 μM): to background levels | inhibition of the activity of Gal4p65 ([7]; 1 μM): able to halfmaximally inhibit the activity of Gal4p65 | repression of TNF-activated p(IL6-κB)350hu.IL6P-luc+ ([8]; 1 μM): only when GR is present | repression of TNF-activated pNF-κB-Luc (pNF-κB-Luc; 1 μM): not able to mediate repression of pNF-κB-Luc

CNCC(Cl)c1ccc(OC(C)=O)cc1.Cl (stereo not shown) [CpdA, 2-(4-acetoxyphenyl)-2-chloro-N-methyl-ethylammonium chloride]
inhibition of STS-induced AP-1-mediated transactivation ([1]; 0.1, 1 and 10 μM): capable of inhibiting the STS-induced transactivation | inhibition of TNF-activated p(IL6κB)350hu.IL6Pluc+ [9]: inhibits, to a similar extent as DEX | effect on oestrus cycle (oestrus cycle): disrupts the oestrus cycle of rats | inhibition of TNF induction of p1168hu.IL6P-luc+ (relative luciferase induction factor) ([2]; 0.1 μM): downmodulatory effect | inhibition of TNF induction of p1168hu.IL6P-luc+ (relative luciferase induction factor) ([2]; 1 μM): lowers the relative luciferase induction factor to almost the same extent as 1 μM DEX | effect on amount of phosphorylated (activated) JNK (JNK p46 and p54; 1 or 10 μM for 2 h): does not affect the amount of activated JNK p46 and p54 | transactivation of p(GRE)2-50-luc+ ([4]; 0.1 and 10 μM, 8 h): lack of activity | effect on DEX-induced p(GRE)2-50-luc+ transactivation ([4]; CpdA together with 1 μM DEX): competition for GR molecules present in the cell | inhibition of TNF-induced NF-κB-mediated transactivation of p1168(AP-1mut)IL6P-luc+ ([5]; 1 μM and 10 μM): capable of significantly inhibiting the TNF-induced promoter activity | effect on NF-κB DNA-binding activity [10]: no change of NF-κB DNA-binding activity is observed | inhibition of TNF-induced pE-selectin-luc+ ([6]; 1 μM): also effective, though to a lesser extent | inhibition of TNF-induced pE-selectin-luc+ ([6]; 10 μM): inhibits the TNF-activated reporter to the same extent as 1 μM DEX, i.e. to background levels | stability in solution [11]: starts to cyclise to the corresponding aziridine | inhibition of the activity of Gal4p65 ([7]; 10 μM): able to halfmaximally inhibit the activity of Gal4p65 | repression of TNF-activated p(IL6-κB)350hu.IL6P-luc+ ([8]; 10 μM): only when GR is present | hygroscopicity and light sensitivity [12]: hygroscopic and sensitive to light | repression of TNF-activated pNF-κB-Luc (pNF-κB-Luc; 10 μM): not able to mediate repression of pNF-κB-Luc | lowering of TNF-induced IL-6 protein levels [13]: able to efficiently lower these TNF-induced levels
